# In US8916711B2, “Imidazothiazole-chalcone derivatives as potential anticancer agents and process for the preparation thereof” (Council of Scientific and Industrial Research, priority 2009, dated 2014):
# pIC50: −log10 of the molar value.
# Assays:
# [1] = test system: MCF7; experiment: NCI in vitro cytotoxicity (SRB, 48 h), Breast panel; type: cell-based; conditions: Homo sapiens, MCF7; MCF-7; Table 4; read-out: Comparative efficacy
# Experimental: (§1) The imidazothiazole-chalcone hybrids 7a, 7e, 7f, 8f and 19e have been tested against sixty human tumour cell lines derived from nine cancer types (leukemia, non-small cell lung cancer, colon cancer, CNS cancer, melanoma, ovarian cancer, renal cancer, prostate cancer and breast cancer) as per NCI protocol. For each compound, dose response curves for individual cell lines have been measured at a minimum of five concentrations at 10 fold dilutions. A protocol of 48 h continuous drug exposure has been used, and a sulforhodamine B (SRB) protein assay was used to estimate cell viability or growth. The concentration for 50% cell growth inhibition (GI50), total cell growth inhibition (TGI, 0% growth) and 50% cell death (LC50, […]) compared with the control has been calculated (Table-1).
# [2] = test system: MDA-MB-231/ATCC; experiment: as above; type: cell-based; conditions: Homo sapiens, Table 4, read-out: Comparative efficacy
# Experimental: as §1
# [3] = test system: SR; experiment: NCI in vitro cytotoxicity (SRB, 48 h), Leukemia panel; type: cell-based; conditions: Homo sapiens
# Experimental: as §1
SMILES,melting point,also measured
"C1=Nc2c3c(ccc2=N1)=NCS3 [C, imidazobenzothiazole, reference compound]",,pIC50 [1]: 4.49; pIC50 [2]: 4.36
"COc1ccc(C(=O)/C=C/c2c(-c3ccc(F)cc3)nc3sccn23)cc1OC [Compound 8e, (E)-1-(3,4-dimethoxyphenyl)-3-(6-(4-fluorophenyl)imidazo[2,1-b]thiazol-5-yl)prop-2-en-1-one]",221 to 223 °C,
"Cc1ccc(C(=O)/C=C/c2c(-c3ccc(F)cc3)nc3sccn23)cc1C [Compound 9e, (E)-1-(3,4-dimethylphenyl)-3-(6-(4-fluorophenyl)imidazo[2,1-b]thiazol-5-yl)prop-2-en-1-one]",210 to 213 °C,
"COc1ccc(-c2nc3sccn3c2/C=C/C(=O)c2ccc3c(c2)OCO3)cc1 [Compound 11a, (E)-1-(benzo[d][1,3]dioxol-5-yl)-3-(6-(4-methoxyphenyl)imidazo[2,1-b]thiazol-5-yl)prop-2-en-1-one]",189 to 191 °C,
"O=C(/C=C/c1c(-c2ccc(F)cc2)nc2sccn12)c1ccc2ccccc2c1 [Compound 12e, (E)-3-(6-(4-fluorophenyl)imidazo[2,1-b]thiazol-5-yl)-1-(naphthalen-2-yl)prop-2-en-1-one]",216 to 218 °C,
"O=C(/C=C/c1c(-c2ccc(F)cc2)nc2sccn12)c1ccc(-c2ccccc2)cc1 [Compound 13e, (E)-1-(biphenyl-4-yl)-3-(6-(4-fluorophenyl)imidazo[2,1-b]thiazol-5-yl)prop-2-en-1-one]",194 to 196 °C,
"COc1ccc(-c2nc3sccn3c2/C=C/C(=O)c2cccs2)cc1 [Compound 16a, (E)-3-(6-(4-methoxyphenyl)imidazo[2,1-b]thiazol-5-yl)-1-(thiophen-2-yl)prop-2-en-1-one]",169 to 172 °C,
"COc1ccc(-c2nc3sccn3c2/C=C/C(=O)c2ccc[nH]2)cc1 [Compound 17a, (E)-3-(6-(4-methoxyphenyl)imidazo[2,1-b]thiazol-5-yl)-1-(1H-pyrrol-2-yl)prop-2-en-1-one]",177 to 179 °C,
"COc1cc(C(=O)/C=C/c2c(C(F)(F)F)nc3sc(C)cn23)cc(OC)c1OC [Compound 19f, (E)-3-(2-methyl-6-(trifluoromethyl)imidazo[2,1-b]thiazol-5-yl)-1-(3,4,5-trimethoxyphenyl)prop-2-en-1-one]",,GI50 [3]: 0.8 µM
